Reference: ChEMBL document CHEMBL3351533, “PASS-assisted design, synthesis and antioxidant evaluation of new butylated hydroxytoluene derivatives” (Eur J Med Chem, 2014)

Assays:
Format in all cases: physicochemical
[1] = Antioxidant activity assessed as DPPH free radical scavenging activity at 100 uM after 60 mins by spectrophotometry; details: 1 h
[2] = Antioxidant activity assessed as inhibition of lipid peroxidation at 100 uM after 1 hr by TBARS assay
[3] = Antioxidant activity assessed as inhibition of lipid peroxidation after 1 hr by TBARS assay
[4] = Antioxidant activity assessed as DPPH free radical scavenging activity after 60 mins by spectrophotometry

| SMILES | Imax [1] [%] | Imax [2] [%] | IC50 [3] [µM] | IC50 [4] [µM] |
| --- | --- | --- | --- | --- |
| CC(C)(C)c1cc(CSCC(=O)O)cc(C(C)(C)C)c1O | 51.2 | 73.99 | 38.8 | 96.7 |
| COc1ccccc1NC(=S)NNC(=O)CSCc1cc(C(C)(C)C)c(O)c(C(C)(C)C)c1 | 75.42 | 94.75 | 60.5 | 52 |
| COc1ccc(NC(=S)NNC(=O)CSCc2cc(C(C)(C)C)c(O)c(C(C)(C)C)c2)cc1 | 76.76 | 96.58 | 30.1 | 50.9 |
| COc1ccccc1Nc1nnc(CSCc2cc(C(C)(C)C)c(O)c(C(C)(C)C)c2)s1 | 54.69 | 89.18 | 13.2 | 90.8 |
| COc1ccc(Nc2nnc(CSCc3cc(C(C)(C)C)c(O)c(C(C)(C)C)c3)s2)cc1 | 59.29 | 89.84 | 7.98 | 76.8 |
| COc1ccccc1-n1c(S)nnc1CSCc1cc(C(C)(C)C)c(O)c(C(C)(C)C)c1 | 27.83 | 76.47 | 38.9 | > 100 |
| COc1ccc(-n2c(S)nnc2CSCc2cc(C(C)(C)C)c(O)c(C(C)(C)C)c2)cc1 | 52.94 | 86.43 | 2.85 | 92.7 |
| Cc1c(C)c2c(c(C)c1O)CC[C@@](C)(CCC[C@H](C)CCC[C@H](C)CCCC(C)C)O2 [ALPHA-TOCOPHEROL] |  | 84.69 | 5.63 |  |
| O=C1O[C@H]([C@@H](O)CO)C(O)=C1O [ASCORBIC ACID] | 71.39 |  |  | 67.8 |
| Cc1cc(C(C)(C)C)c(O)c(C(C)(C)C)c1 [BUTYLATED HYDROXYTOLUENE] | 25.23 | 79.45 | 36.7 | > 100 |
